Data as given in patent US20160296529A1, “AMINOTRIAZOLOPYRIDINE FOR USE IN THE TREATMENT OF INFLAMMATION, AND PHARMACEUTICAL COMPOSITIONS THEREOF” (priority 2012, published 2016).
pIC50: −log10 of the molar value.

How the values were obtained:
[1] = test system: IL-6-induced STAT1 phosphorylation (JAK1-dependent pathway); test: Human whole blood assay (hWBA), IL-6 stimulation, phospho-STAT1 on CD4+ cells; type: cell-based
Procedure: A flow cytometry analysis was performed to establish JAK1 over JAK2 compound selectivity ex vivo using human whole blood. Therefore, blood is taken from human volunteers who gave informed consent. Blood is then equilibrated for 30 min at 37° C. under gentle rocking, then aliquoted in Eppendorf tubes. Compound is added at different concentrations and incubated at 37° C. for 30 min under gentle rocking and subsequently stimulated for 20 min at 37° C. under gentle rocking with interleukin 6 (IL-6) for JAK1-dependent pathway stimulation or GM-CSF for JAK2-dependent pathway stimulation. Phospho-STAT1 and phospho-STAT5 are then evaluated using FACS analysis. […]
(§1) Cells were then washed once with 1×PBS and analyzed on a FACSCanto II flow cytometer (BD Biosciences).
50,000 total events are counted and Phospho-STAT1 positive cells are measured after gating on CD4^+ cells, in the lymphocyte gate. Data are analyzed using the FACSDiva software and the percentage of inhibition of IL-6 stimulation calculated from the percentage of positive cells for phospho-STAT1 on CD4+ cells.
A flow cytometry analysis was performed to establish JAK1 over JAK2 compound selectivity ex vivo using human whole blood. […] Phospho-STAT1 (for IL-6- and IFNα-stimulated cells) and phospho-STAT5 (for IL-2- and GM-CSF-stimulated cells) levels are then evaluated using FACS analysis. […]

[2] = test system: IL-2-induced STAT5 phosphorylation (JAK1/JAK3 pathway); test: Human whole blood assay (hWBA), IL-2 stimulation, phospho-STAT5 on CD4+ cells; type: cell-based; settings: 5 different donors
Procedure: A flow cytometry analysis was performed to establish JAK1 over JAK2 compound selectivity ex vivo using human whole blood. Therefore, blood is taken from human volunteers who gave informed consent. Blood is then equilibrated for 30 min at 37° C. under gentle rocking, then aliquoted in Eppendorf tubes. Compound is added at different concentrations and incubated at 37° C. for 30 min under gentle rocking and subsequently stimulated for 20 min at 37° C. under gentle rocking with interleukin 6 (IL-6) for JAK1-dependent pathway stimulation, Interferon alpha (IFNα) for JAK1/TYK2 pathway stimulation, interleukin 2 (IL-2) for JAK1/JAK3 pathway stimulation or GM-CSF for JAK2-dependent pathway stimulation. Phospho-STAT1 (for IL-6- and IFNα-stimulated cells) and phospho-STAT5 (for IL-2- and GM-CSF-stimulated cells) levels are then evaluated using FACS analysis. […]
as §1
50,000 total events were counted and Phospho-STAT1 positive cells were measured after gating on CD4+ cells, in the lymphocyte gate for IL-6- and IFNα-stimulated cells. Phospho-STAT5 positive cells were measured after gating on CD4+ cells, in the lymphocyte gate for IL-2-stimulated cells. Phospho-STAT5 positive cells were measured after gating on CD33+ cells. […]

pIC50 ([1]; human whole blood, 6 different donors): 4.92
pIC50 [2]: 4.71
Compound: Nc1nc2cccc(-c3ccc(CN4CCS(=O)(=O)CC4)cc3)n2n1 [Formula I, 5-[4-(1,1-Dioxothiomorpholin-4-ylmethyl)-phenyl]-[1,2,4]triazolo[1,5-a]pyridin-2-ylamine]
selectivity for JAK1 over JAK2 ([1]; in vitro whole blood selectivity assay (IL-6 vs GM-CSF)): over 10 fold
